This passage reports X-ray crystal structure results from publication PMC8162069 (Chemical Science, 2020).

This test has as its target HepG (Trichoderma virens, UniProt G9NDK9). Description: X-ray crystal structure. It is filed as binding. The note with it: active site of each subunit.

Sequence of HepG (G9NDK9 1-336): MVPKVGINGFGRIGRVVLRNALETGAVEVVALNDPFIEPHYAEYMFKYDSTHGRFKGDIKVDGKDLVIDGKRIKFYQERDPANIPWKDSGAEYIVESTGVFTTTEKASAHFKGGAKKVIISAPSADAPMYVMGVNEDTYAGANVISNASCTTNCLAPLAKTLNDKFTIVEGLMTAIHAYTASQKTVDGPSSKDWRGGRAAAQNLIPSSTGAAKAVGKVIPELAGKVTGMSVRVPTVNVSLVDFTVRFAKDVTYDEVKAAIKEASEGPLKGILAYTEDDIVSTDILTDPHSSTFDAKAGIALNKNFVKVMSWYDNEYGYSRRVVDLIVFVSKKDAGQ

`NC(=O)c1ccc[n+]([C@@H]2O[C@H](COP(=O)(O)OP(=O)(O)OC[C@H]3O[C@@H](n4cnc5c(N)ncnc54)[C@H](O)[C@@H]3O)[C@@H](O)[C@H]2O)c1` [NAD^+]: the X-ray crystal structure result is “Each subunit of the tetrameric HepG contains a NAD^+ cofactor”.
